For assay [1], the target named is T1, human alpha2C receptors (Homo sapiens, UniProt P18825).
T1 sequence (P18825 1-462): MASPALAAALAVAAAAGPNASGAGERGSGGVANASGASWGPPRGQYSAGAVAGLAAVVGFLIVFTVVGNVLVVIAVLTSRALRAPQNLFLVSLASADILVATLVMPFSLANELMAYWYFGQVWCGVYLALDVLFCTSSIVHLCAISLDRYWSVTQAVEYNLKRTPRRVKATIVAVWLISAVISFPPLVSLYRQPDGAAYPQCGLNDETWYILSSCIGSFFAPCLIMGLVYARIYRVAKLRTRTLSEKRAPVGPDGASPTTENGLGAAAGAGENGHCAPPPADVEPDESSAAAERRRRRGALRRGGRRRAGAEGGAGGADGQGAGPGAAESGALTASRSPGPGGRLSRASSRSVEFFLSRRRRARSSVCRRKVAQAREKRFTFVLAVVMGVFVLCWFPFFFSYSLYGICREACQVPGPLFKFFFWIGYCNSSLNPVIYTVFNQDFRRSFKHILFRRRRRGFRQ
Nature of the assay: Determination of alpha2C antagonistic activity in vitro (FLIPR calcium assay). As to conditions: for Kb: Alpha 2C Adrenaline Kb, Kb calculated from IC50 with the Cheng-Prusoff equation, adrenaline as agonist, CHO cells, human alpha2C.
Method: Experiment 1: Determination of alpha2A and alpha2C Antagonistic Activity In Vitro
The growth medium was removed and the cells were incubated with the test compounds and the FLIPR Calcium 6 Assay reagent (Molecular Devices, CA, USA) for 2 h at 37° C. in dark. The test compounds (concentrations in cells 100 pM-10 μM) were dissolved in Probenecid-Ringer consisting of 150 mM NaCl, 3 mM KCl, 1.2 mM MgCl2, 1 mM CaCl2, 5 mM glucose, 20 mM HEPES and 2.5 mM probenecid (pH 7.4 adjusted with 1.0 M NaOH). […] All experiments were performed at 37° C. For agonism measurements the test compounds dissolved in Probenecid-Ringer were applied by FLIPR Tetra at 15 s time point. In order to determine antagonism, the cells were stimulated either with 100 nM adrenaline or noradrenaline and the test compounds were added to the cells 2 h before the experiment with the FLIPR Calcium 6 Assay reagent. […] Typically, there were four replicates at each concentration and six different dose levels. […] The minimum fluorescence value subtracted from the maximum value for each well was used in the calculations. ScreenWorks version 4.0 software was used for analyzing the results. Fitting of the antagonist dose-response results was performed with the free Hill equation and the IC50 values were fitted with IDBS XE software using model 200: y=(A+(B/(1+((x/C)̂D)))), where A is the curve maximum, B the curve minimum and C equals the EC50 value. D is slope factor (Hill). Kb was calculated with the Cheng-Prusoff equation Kb=A/((B/C)+1), where A is the IC50 of antagonist, B the concentration of agonist and C the EC50 of the agonist.

The target in assay [2] is T2, human alpha2A receptors (Homo sapiens, UniProt P08913).
T2 sequence (P08913 1-465): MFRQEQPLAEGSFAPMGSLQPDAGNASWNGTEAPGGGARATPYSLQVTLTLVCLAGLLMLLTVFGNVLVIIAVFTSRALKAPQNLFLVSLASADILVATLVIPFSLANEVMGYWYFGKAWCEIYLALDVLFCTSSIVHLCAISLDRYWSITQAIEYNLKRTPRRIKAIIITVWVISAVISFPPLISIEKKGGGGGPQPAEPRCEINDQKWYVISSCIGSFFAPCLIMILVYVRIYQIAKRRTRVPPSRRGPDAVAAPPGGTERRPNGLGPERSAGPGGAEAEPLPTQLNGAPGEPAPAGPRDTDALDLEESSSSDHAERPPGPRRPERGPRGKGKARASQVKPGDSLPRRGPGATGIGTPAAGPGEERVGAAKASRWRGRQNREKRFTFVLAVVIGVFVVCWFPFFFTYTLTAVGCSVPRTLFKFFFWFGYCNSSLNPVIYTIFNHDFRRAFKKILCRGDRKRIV
Nature of the assay: cell-based.

For orientation: IC50 means the midpoint of a concentration-inhibition curve. Regarding `COc1ccc2c(c1)C(=O)N([C@H]1CCCN(C[C@H]3COc4ccccc4O3)C1)C2` [example 70, 2-((S)-1-(((S)-2,3-Dihydrobenzo[b][1,4]dioxin-2-yl)methyl)piperidin-3-yl)-6-methoxyisoindolin-1-one], in assay [1], the IC50 is 0.905 nM and the Kb was 0.091 nM. For the same compound, in assay [2], the IC50 is > 10000 nM and the Kb is > 449 nM.

As for `CC(=O)NCc1ccc2c(c1)CN([C@H]1CCCN(C[C@H]3COc4ccccc4O3)C1)C2=O` [example 71, N-((2-((S)-1-(((S)-2,3-Dihydrobenzo[b][1,4]dioxin-2-yl)methyl)piperidin-3-yl)-1-oxoisoindolin-5-yl)methyl)acetamide], the IC50 in assay [1] is 0.12 nM; in assay [2] it was > 10000 nM. Besides, the Kb in assay [1] is 0.012 nM; in assay [2], > 449 nM.

For the compound `O=c1[nH]c2ccccc2c(=O)n1[C@H]1CCCN(C[C@H]2COc3ccccc3O2)C1` [example 72, 3-((S)-1-(((S)-2,3-Dihydrobenzo[b][1,4]dioxin-2-yl)methyl)-piperidin-3-yl)quinazoline-2,4(1H,3H)-dione], in assay [1], the IC50 was determined as 0.124 nM and the Kb was 0.012 nM. Also, in assay [2], the IC50 is > 10000 nM and the Kb was > 449 nM.

Regarding `CCC1(c2ccccc2)C(=O)N([C@H]2CCCN(C[C@H]3COc4ccccc4O3)C2)C(=O)N1C` (stereo partly drawn) [example 73, 3-((S)-1-(((S)-2,3-Dihydrobenzo[b][1,4]dioxin-2-yl)methyl)-piperidin-3-yl)-5-ethyl-1-methyl-5-phenylimidazolidine-2,4-dione], the IC50 in assay [1] is < 0.1 nM; in assay [2], 185 nM. In addition, the Kb was < 0.01 nM in assay [1] and 8 nM in assay [2].

`CC1(c2ccccc2)NC(=O)N([C@H]2CCCN(C[C@H]3COc4ccccc4O3)C2)C1=O` (stereo partly drawn) [example 74, 3-((S)-1-(((S)-2,3-Dihydrobenzo[b][1,4]dioxin-2-yl)methyl)piperidin-3-yl)-5-methyl-5-phenylimidazolidine-2,4-dione]: in assay [1], the IC50 is < 0.1 nM and the Kb was < 0.01 nM. In assay [2], this compound had an IC50 of 13 nM and a Kb of 1 nM.

In the case of `O=C1c2cccnc2C(=O)N1[C@H]1CCCN(C[C@H]2COc3ccccc3O2)C1` [example 75, 6-((S)-1-(((S)-2,3-Dihydrobenzo[b][1,4]dioxin-2-yl)methyl)piperidin-3-yl)-5H-pyrrolo[3,4-b]pyridine-5,7(6H)-dione], in assay [1], the IC50 stood at 0.95 nM and the Kb was 0.097 nM. For the same compound, in assay [2], the IC50 was > 10000 nM and the Kb is > 449 nM.

Regarding `O=C1c2ccncc2CN1[C@H]1CCCN(C[C@H]2COc3ccccc3O2)C1` [example 76, 2-((S)-1-(((S)-2,3-Dihydrobenzo[b][1,4]dioxin-2-yl)methyl)piperidin-3-yl)-2,3-dihydro-1H-pyrrolo[3,4-c]pyridin-1-one], in assay [1], the IC50 is 1770 nM and the Kb was 178 nM. In assay [2], the concentration for half-maximal inhibition (IC50) is > 10000 nM and the Kb was > 449 nM.

Take `O=C1c2ncccc2CN1[C@H]1CCCN(C[C@H]2COc3ccccc3O2)C1` [example 77, 6-((S)-1-(((S)-2,3-Dihydrobenzo[b][1,4]dioxin-2-yl)methyl)piperidin-3-yl)-5H-pyrrolo[3,4-b]pyridin-7(6H)-one]: in assay [1], the IC50 was found to be 10.5 nM and the Kb is 1.05 nM. Besides, in assay [2], the IC50 was > 10000 nM and the Kb was > 449 nM.

Take `O=C1c2ncncc2CN1[C@H]1CCCN(C[C@H]2COc3ccccc3O2)C1` [example 78, 6-((S)-1-(((S)-2,3-Dihydrobenzo[b][1,4]dioxin-2-yl)methyl)piperidin-3-yl)-5H-pyrrolo[3,4-d]pyrimidin-7(6H)-one]: the IC50 in assay [1] is 256 nM; in assay [2], > 10000 nM. Further, the figures for the Kb in assay [1] and in assay [2] were 25.8 nM and > 449 nM, respectively.

As for `O=C1c2scnc2CN1[C@H]1CCCN(C[C@H]2COc3ccccc3O2)C1` [example 79, 5-((S)-1-(((S)-2,3-Dihydrobenzo[b][1,4]dioxin-2-yl)methyl)piperidin-3-yl)-4H-pyrrolo[3,4-d]thiazol-6(5H)-one], in assay [1], the IC50 amounted to 5.4 nM and the Kb was 0.544 nM. Also, in assay [2], the IC50 was > 10000 nM and the Kb is > 449 nM.

As to `Cn1ncc2c1CN([C@H]1CCCN(C[C@H]3COc4ccccc4O3)C1)C2=O` [example 80, 5-((S)-1-(((S)-2,3-Dihydrobenzo[b][1,4]dioxin-2-yl)methyl)piperidin-3-yl)-1-methyl-5,6-dihydropyrrolo[3,4-c]pyrazol-4(1H)-one], the IC50 in assay [1] and in assay [2] was > 10000 nM throughout. Also, the results for the Kb in assay [1] and in assay [2] were > 1010 nM and > 449 nM, respectively.

`O=S1(=O)c2ccccc2CN1[C@H]1CCCN(C[C@H]2COc3ccccc3O2)C1` [example 81, 2-((S)-1-(((S)-2,3-Dihydrobenzo[b][1,4]dioxin-2-yl)methyl)piperidin-3-yl)-2,3-dihydrobenzo[d]isothiazole 1,1-dioxide]: the IC50 in assay [1] was 653 nM; in assay [2] it was > 10000 nM. Besides, the Kb in assay [1] is 65.7 nM; in assay [2], > 449 nM.

Turning to `Fc1ccc2ncn([C@H]3CCCN(C[C@H]4COc5ccccc5O4)C3)c2c1` [example 82, 1-((S)-1-(((S)-2,3-Dihydrobenzo[b][1,4]dioxin-2-yl)methyl)piperidin-3-yl)-6-fluoro-1H-benzo[d]imidazole], in assay [1], the IC50 is < 0.1 nM and the Kb is < 0.01 nM. Moreover, in assay [2], the IC50 was > 10000 nM and the Kb is > 449 nM.

With `Cc1nc2ccc(F)cc2n1[C@H]1CCCN(C[C@H]2COc3ccccc3O2)C1` [example 83, 1-((S)-1-(((S)-2,3-Dihydrobenzo[b][1,4]dioxin-2-yl)methyl)piperidin-3-yl)-6-fluoro-2-methyl-1H-benzo[d]imidazole], in assay [1], the IC50 was < 0.1 nM and the Kb is < 0.01 nM. In assay [2], the IC50 is > 10000 nM and the Kb is > 449 nM.

Take `CCc1nc2ccc(F)cc2n1[C@H]1CCCN(C[C@H]2COc3ccccc3O2)C1` [example 84, 1-((S)-1-(((S)-2,3-Dihydrobenzo[b][1,4]dioxin-2-yl)methyl)piperidin-3-yl)-2-ethyl-6-fluoro-1H-benzo[d]imidazole]: in assay [1], the IC50 was < 0.1 nM and the Kb is < 0.01 nM. In assay [2], this compound displayed an IC50 of 4330 nM and a Kb of 195 nM.

Regarding `CC(C)c1nc2ccc(F)cc2n1[C@H]1CCCN(C[C@H]2COc3ccccc3O2)C1` [example 85, 1-((S)-1-(((S)-2,3-Dihydrobenzo[b][1,4]dioxin-2-yl)methyl)piperidin-3-yl)-6-fluoro-2-isopropyl-1H-benzo[d]imidazole], in assay [1], the IC50 is 1260 nM and the Kb was 127 nM. Besides, in assay [2], the IC50 is > 10000 nM and the Kb was > 449 nM.

`O=c1[nH]c2ccc(F)cc2n1[C@H]1CCCN(C[C@H]2COc3ccccc3O2)C1` [example 86, 1-((S)-1-(((S)-2,3-Dihydrobenzo[b][1,4]dioxin-2-yl)methyl)piperidin-3-yl)-6-fluoro-1H-benzo[d]imidazol-2(3H)-one]: in assay [1], the IC50 was < 0.1 nM and the Kb was < 0.01 nM. Moreover, in assay [2], the IC50 is > 10000 nM and the Kb was > 449 nM.

Take `Fc1ccc2c(c1)ncn2[C@H]1CCCN(C[C@H]2COc3ccccc3O2)C1` [example 87, 1-((S)-1-(((S)-2,3-Dihydrobenzo[b][1,4]dioxin-2-yl)methyl)piperidin-3-yl)-5-fluoro-1H-benzo[d]imidazole]: in assay [1], the 50% inhibitory concentration (IC50) is < 0.1 nM and the Kb was < 0.01 nM. In assay [2], the IC50 was > 10000 nM and the Kb is > 449 nM.

Turning to `O=c1[nH]c2cc(F)ccc2n1[C@H]1CCCN(C[C@H]2COc3ccccc3O2)C1` [example 88, 1-((S)-1-(((S)-2,3-Dihydrobenzo[b][1,4]dioxin-2-yl)methyl)piperidin-3-yl)-5-fluoro-1H-benzo[d]imidazol-2(3H)-one], in assay [1], the half-maximal inhibitory concentration (IC50) is < 0.1 nM and the Kb is < 0.01 nM. Further, in assay [2], the IC50 was > 10000 nM and the Kb is > 449 nM.

For `Clc1ccc2ncn([C@H]3CCCN(C[C@H]4COc5ccccc5O4)C3)c2c1` [example 89, 6-Chloro-1-((S)-1-(((S)-2,3-dihydrobenzo[b][1,4]dioxin-2-yl)methyl)piperidin-3-yl)-1H-benzo[d]imidazole], the results for the IC50 in assay [1] and in assay [2] were < 0.1 nM and 9460 nM, respectively. The Kb in assay [1] was < 0.01 nM; in assay [2] it was 425 nM.
